Values of other authors as cited in article PMC11125331, “Pharmaceutical Compounding in Veterinary Medicine: Suspension of Itraconazole” (Pharmaceutics, 2024).
Read-outs that look alike come from different tables or passages of the source.

Tests used:
[1] = set-up: method as in PMID 28627123
cats = test system: cats; set-up: method as in PMID 35245984, PMID 34109637; settings: punctual administrations
dogs [2] = test system: dogs; set-up: method as in PMID 35245984, PMID 34109637; settings: orally at 10 mg/kg
dogs [3] = test system: dogs; set-up: method as in earlier work

Q: Which results are given for `CCC(C)n1ncn(-c2ccc(N3CCN(c4ccc(OCC5COC(Cn6cncn6)(c6ccc(Cl)cc6Cl)O5)cc4)CC3)cc2)c1=O` (centres unmarked) [Itraconazole]?
A: Concentration in skin and hair relative to plasma levels [1]: ten times higher than plasma levels; Biopharmaceutical Classification System class: class II; log P (n-octanol/water) (at pH 8.1): 5.66; Solubility (in 0.1 M chlorhydric acid (HCl)): 4 to 6 µg/mL; Solubility (in water): 0.001 to 0.004 µg/mL

Q: What does the source list for polysorbate 80?
A: Safety (cats): safe; Adverse effects (dogs [2]): produces cardiovascular changes and hypersensitivity effects

Q: For `OC[C@@H](O)[C@H](O)[C@@H](O)CO` [xylitol], which Adverse effects (dogs [3]) is on record?
A: can cause severe hypoglycemia
